Measured values taken from patent US20250092039A1, “GLUTARIMIDE-CONTAINING PAN-KRAS-MUTANT DEGRADER COMPOUNDS AND USES THEREOF” (Tiger Biotherapeutics Inc., priority 2022, published 2025).
Like-named read-outs stand apart in the source and are kept apart here.

How the values were obtained:
KRAS G12V = KRAS G12V (Homo sapiens (Human), UniProt P01116, G12V); test: KRAS G12V degradation in SW620 cells (Western blot, DC50); assay type: cell-based; conditions: 24 hours
Summary of the method: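 SW620 cells (homozygous KRAS G12V) were treated with compound for 24 hours at 37° C. KRAS in lysates was measured by Western blot with fluorescent secondary antibodies and expressed relative to DMSO vehicle (100%). DC50 came from a four-parameter variable-slope dose-response fit.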

KRAS-G12V/RAF1 = KRAS-G12V/RAF1 (Homo sapiens (Human), UniProt P01116, G12V); test: KRAS/RAF1 binding inhibition assay (AlphaScreen)
Summary of the method: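 Binding of GppNHp-loaded KRAS G12V to the RAF1 RBD was measured by AlphaScreen with test compound present in 2% DMSO (final), 60 min incubation at 4° C. Signals were converted to % inhibition versus DMSO, and IC50 was obtained by variable-slope nonlinear regression.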

SW620 cells = test: 3D cell growth inhibition of SW620 cells carrying endogenous KRAS G12V mutation (CellTiter-Glo 3D, GI50); assay type: cell-based; conditions: Homo sapiens, SW-620, 144 h, read-out: SW620 3D cell growth GI50
Protocol: The following day, the test compound was administered to the cells by using 1000× compound stock solution prepared in DMSO at various concentrations. 1000× compound stock solution was first diluted in culturing medium to 10×, then 10 μL compound medium was added to each well in the cell plates. After administration of the compound, the cells were then incubated at 37° C. for 6 days. Upon completion, the plates were equilibrated at room temperature for approximately 10 minutes. 100 μL of CellTiter-Glo® 3D Reagent (Promega) was added to each well. The plates were then incubated at room temperature for 30 minutes and luminescence was recorded by EnSpire plate reader (PerkinElmer).

KRAS G12V, sequence (P01116-2 other isoform, or with tags, fused parts or gaps G12V): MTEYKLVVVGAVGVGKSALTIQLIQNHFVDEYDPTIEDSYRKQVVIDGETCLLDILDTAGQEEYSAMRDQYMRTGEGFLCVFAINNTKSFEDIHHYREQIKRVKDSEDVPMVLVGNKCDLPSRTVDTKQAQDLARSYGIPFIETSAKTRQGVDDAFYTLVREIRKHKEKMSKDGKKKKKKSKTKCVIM
KRAS-G12V/RAF1, sequence (P01116-2 other isoform, or with tags, fused parts or gaps G12V): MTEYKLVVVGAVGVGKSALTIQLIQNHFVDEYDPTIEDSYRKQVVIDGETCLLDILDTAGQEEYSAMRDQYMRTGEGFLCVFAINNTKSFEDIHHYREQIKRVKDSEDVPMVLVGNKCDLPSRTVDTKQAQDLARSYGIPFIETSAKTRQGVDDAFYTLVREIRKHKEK

DC50 (KRAS G12V) [nM] | IC50 (KRAS-G12V/RAF1) [nM] | GI50 (SW620 cells; SW620 cells, 6 days) [nM] | Structure (SMILES) | GI50 (SW620 cells) [nM]
1 to 10 | < 20 | < 10 | CCc1c(F)ccc2cc(O)cc(-c3ncc4c(N5CCCC(C)(O)C5)nc(OCC5(CN6CCC7(CC6)CCC(C)(N6CCN(c8ccc9c(c8)CN(C8CCC(=O)NC8=O)C9=O)CC6)CC7)CC5)nc4c3F)c12 (stereo in doubt) [Compound 167, 3-[5-[4-[3-[[1-[[7-(8-ethyl-7-fluoro-3-hydroxy-1-naphthyl)-8-fluoro-4-[(3R)-3-hydroxy-3-methyl-1-piperidyl]pyrido[4,3-d]pyrimidin-2-yl]oxymethyl]cyclopropyl]methyl]-9-methyl-3-azaspiro[5.5]undecan-9-yl]piperazin-1-yl]-1-oxo-isoindolin-2-yl]piperidine-2,6-dione] | –
< 1 | 20 to 200 | 10 to 100 | CCc1c(F)ccc2cc(O)cc(-c3ncc4c(N5CCC[C@@](C)(O)C5)nc(OCC5(CN6CCC7(CC6)CC(CN6CCN(c8ccc9c(c8)CN([C@H]8CCC(=O)NC8=O)C9=O)CC6)C7)CC5)nc4c3F)c12 [Compound 2, (S)-3-(5-(4-((7-((1-(((7-(8-ethyl-7-fluoro-3-hydroxynaphthalen-1-yl)-8-fluoro-4-((R)-3-hydroxy-3-methylpiperidin-1-yl)pyrido[4,3-d]pyrimidin-2-yl)oxy)methyl)cyclopropyl)methyl)-7-azaspiro[3.5]nonan-2-yl)methyl)piperazin-1-yl)-1-oxoisoindolin-2-yl)piperidine-2,6-dione] | –
> 100 | > 200 | > 100 | CCc1c(F)ccc2cc(O)cc(-c3ncc4c(NCC5(N(C)C)CCC5)nc(OCC5(CN6CCC7(CC6)CC(CN6CCN(c8ccc9c(c8)CN([C@H]8CCC(=O)NC8=O)C9=O)CC6)C7)CC5)nc4c3F)c12 [Compound 3, (S)-3-(5-(4-((7-((1-(((4-(((1-(dimethylamino)cyclobutyl)methyl)amino)-7-(8-ethyl-7-fluoro-3-hydroxynaphthalen-1-yl)-8-fluoropyrido[4,3-d]pyrimidin-2-yl)oxy)methyl)cyclopropyl)methyl)-7-azaspiro[3.5]nonan-2-yl)methyl)piperazin-1-yl)-1-oxoisoindolin-2-yl)piperidine-2,6-dione] | –
> 100 | > 200 | > 100 | CCc1c(F)ccc2cc(O)cc(-c3ncc4c(N5CCC=CCC5)nc(OCC5(CN6CCC7(CC6)CC(CN6CCN(c8ccc9c(c8)CN([C@H]8CCC(=O)NC8=O)C9=O)CC6)C7)CC5)nc4c3F)c12 [Compound 4, (S)-3-(5-(4-((7-((1-(((7-(8-ethyl-7-fluoro-3-hydroxynaphthalen-1-yl)-8-fluoro-4-(2,3,6,7-tetrahydro-1H-azepin-1-yl)pyrido[4,3-d]pyrimidin-2-yl)oxy)methyl)cyclopropyl)methyl)-7-azaspiro[3.5]nonan-2-yl)methyl)piperazin-1-yl)-1-oxoisoindolin-2-yl)piperidine-2,6-dione] | –
< 1 | 20 to 200 | < 10 | CCc1cccc2cc(O)cc(-c3ncc4c(N5CCC[C@@](C)(O)C5)nc(OCC5(CN6CCC(CN7CCN(c8ccc9c(c8)CN([C@H]8CCC(=O)NC8=O)C9=O)CC7)CC6)CC5)nc4c3F)c12 [Compound 6, (S)-3-(5-(4-((1-((1-(((7-(8-ethyl-3-hydroxynaphthalen-1-yl)-8-fluoro-4-((R)-3-hydroxy-3-methylpiperidin-1-yl)pyrido[4,3-d]pyrimidin-2-yl)oxy)methyl)cyclopropyl)methyl)piperidin-4-yl)methyl)piperazin-1-yl)-1-oxoisoindolin-2-yl)piperidine-2,6-dione] | –
– | > 200 | 10 to 100 | CCc1cccc2cc(O)cc(-c3ncc4c(N(C)[C@@H]5C[C@H]5F)nc(OCC5(CN6CCC(CN7CCN(c8ccc9c(c8)CN([C@H]8CCC(=O)NC8=O)C9=O)CC7)CC6)CC5)nc4c3F)c12 [Compound 29, (S)-3-(5-(4-((1-((1-(((7-(8-ethyl-3-hydroxynaphthalen-1-yl)-8-fluoro-4-(((1R,2R)-2-fluorocyclopropyl)(methyl)amino)pyrido[4,3-d]pyrimidin-2-yl)oxy)methyl)cyclopropyl)methyl)piperidin-4-yl)methyl)piperazin-1-yl)-1-oxoisoindolin-2-yl)piperidine-2,6-dione] | –
– | 20 to 200 | < 10 | CCc1c(F)ccc2cc(O)cc(-c3ncc4c(N5CCC[C@]6(CCO6)C5)nc(OCC5(CN6CCC(CN7CCN(c8ccc9c(c8)CN([C@H]8CCC(=O)NC8=O)C9=O)CC7)CC6)CC5)nc4c3F)c12 [Compound 44, (S)-3-(5-(4-((1-((1-(((7-(8-ethyl-7-fluoro-3-hydroxynaphthalen-1-yl)-8-fluoro-4-((S)-1-oxa-6-azaspiro[3.5]nonan-6-yl)pyrido[4,3-d]pyrimidin-2-yl)oxy)methyl)cyclopropyl)methyl)piperidin-4-yl)methyl)piperazin-1-yl)-1-oxoisoindolin-2-yl)piperidine-2,6-dione] | –
– | > 200 | > 100 | CCc1c(F)ccc2cc(O)cc(-c3ncc4c(N5CCC[C@@]6(CCO6)C5)nc(OCC5(CN6CCC(CN7CCN(c8ccc9c(c8)CN([C@H]8CCC(=O)NC8=O)C9=O)CC7)CC6)CC5)nc4c3F)c12 [Compound 45, (S)-3-(5-(4-((1-((1-(((7-(8-ethyl-7-fluoro-3-hydroxynaphthalen-1-yl)-8-fluoro-4-((R)-1-oxa-6-azaspiro[3.5]nonan-6-yl)pyrido[4,3-d]pyrimidin-2-yl)oxy)methyl)cyclopropyl)methyl)piperidin-4-yl)methyl)piperazin-1-yl)-1-oxoisoindolin-2-yl)piperidine-2,6-dione] | –
< 1 | – | < 10 | C[C@@]1(O)CCCN(c2nc(OCC3(CN4CCC5(CC4)CC(CN4CCN(c6ccc7c(c6)CN([C@H]6CCC(=O)NC6=O)C7=O)CC4)C5)CC3)nc3c(F)c(-c4cc(O)cc5ccc(F)c(Cl)c45)ncc23)C1 [Compound 157, (S)-3-(5-(4-((7-((1-(((7-(8-chloro-7-fluoro-3-hydroxynaphthalen-1-yl)-8-fluoro-4-((R)-3-hydroxy-3-methylpiperidin-1-yl)pyrido[4,3-d]pyrimidin-2-yl)oxy)methyl)cyclopropyl)methyl)-7-azaspiro[3.5]nonan-2-yl)methyl)piperazin-1-yl)-1-oxoisoindolin-2-yl)piperidine-2,6-dione] | –
1 to 10 | – | < 10 | CCc1c(F)ccc2cc(O)cc(-c3ncc4c(N5CCC[C@@](C)(O)C5)nc(OCC5(CN6CC(N7CC8(CN(c9ccc%10c(c9)CN(C9CCC(=O)NC9=O)C%10=O)C8)C7)C6)CC5)nc4c3F)c12 (stereo partly drawn) [Compound 158, 3-(5-(6-(1-((1-(((7-(8-ethyl-7-fluoro-3-hydroxynaphthalen-1-yl)-8-fluoro-4-((R)-3-hydroxy-3-methylpiperidin-1-yl)pyrido[4,3-d]pyrimidin-2-yl)oxy)methyl)cyclopropyl)methyl)azetidin-3-yl)-2,6-diazaspiro[3.3]heptan-2-yl)-1-oxoisoindolin-2-yl)piperidine-2,6-dione] | –
< 1 | – | < 10 | CCc1c(F)ccc2cc(O)cc(-c3ncc4c(N5CCC[C@@](C)(O)C5)nc(OCC5(CN6CCC7(CC6)CC(C)(N6CCN(c8ccc9c(c8)CN(C8CCC(=O)NC8=O)C9=O)CC6)C7)CC5)nc4c3F)c12 (stereo partly drawn) [Compound 159, 3-[5-[4-[7-[[1-[[7-(8-ethyl-7-fluoro-3-hydroxy-1-naphthyl)-8-fluoro-4-[(3R)-3-hydroxy-3-methyl-1-piperidyl]pyrido[4,3-d]pyrimidin-2-yl]oxymethyl]cyclopropyl]methyl]-2-methyl-7-azaspiro[3.5]nonan-2-yl]piperazin-1-yl]-1-oxo-isoindolin-2-yl]piperidine-2,6-dione] | –

Structure (SMILES) | DC50 (KRAS G12V) [nM] | IC50 (KRAS-G12V/RAF1) [nM] | GI50 (SW620 cells; SW620 cells, 6 days) [nM] | GI50 (SW620 cells) [nM]
CCc1c(F)ccc2cc(O)cc(-c3ncc4c(N5CCOCC(C)(O)C5)nc(OCC5(CN6CCC7(CC6)CC(CN6CCN(c8ccc9c(c8)CN([C@H]8CCC(=O)NC8=O)C9=O)CC6)C7)CC5)nc4c3F)c12 (mixture of isomers) [Compound 91, (3S)-3-(5-(4-((7-((1-(((7-(8-ethyl-7-fluoro-3-hydroxynaphthalen-1-yl)-8-fluoro-4-(6-hydroxy-6-methyl-1,4-oxazepan-4-yl)pyrido[4,3-d]pyrimidin-2-yl)oxy)methyl)cyclopropyl)methyl)-7-azaspiro[3.5]nonan-2-yl)methyl)piperazin-1-yl)-1-oxoisoindolin-2-yl)piperidine-2,6-dione] | 1 to 10 | 20 to 200 | – | < 10
CCc1c(F)ccc2cc(O)cc(-c3ncc4c(N5CCCOC6CC65)nc(OCC5(CN6CCC7(CC6)CC(CN6CCN(c8ccc9c(c8)CN([C@H]8CCC(=O)NC8=O)C9=O)CC6)C7)CC5)nc4c3F)c12 (stereo partly drawn) [Compound 165, (3S)-3-(5-(4-((7-((1-(((4-(2-oxa-6-azabicyclo[5.1.0]octan-6-yl)-7-(8-ethyl-7-fluoro-3-hydroxynaphthalen-1-yl)-8-fluoropyrido[4,3-d]pyrimidin-2-yl)oxy)methyl)cyclopropyl)methyl)-7-azaspiro[3.5]nonan-2-yl)methyl)piperazin-1-yl)-1-oxoisoindolin-2-yl)piperidine-2,6-dione] | 1 to 10 | – | – | 10 to 100
